Test results from US8293768B2, “Organic compounds” (Novartis AG, priority 2006, dated 2012).

SMILES	melting point
COC(=O)c1ccc(CN2CCN(c3nc(C)c(C(C)=O)s3)C2=O)cc1 [Example 5.11, methyl 4-((3-(5-acetyl-4-methylthiazol-2-yl)-2-oxoimidazolidin-1-yl)methyl)benzoate]	174 to 175 °C
Cc1cc(N2CCN(CCOc3ccccc3)C2=O)sc1C(=O)NCc1cccnc1 [Example 55, 3-methyl-5-(2-oxo-3-(2-phenoxyethyl)imidazolidin-1-yl)-N-(pyridin-3-ylmethyl)thiophene-2-carboxamide]	78 to 80 °C
Cc1nc(N2CCN(Cc3ccc(OC(F)F)cc3)C2=O)sc1C(=O)NCc1cccnc1 [Example 9.24, 2-(3-(4-(difluoromethoxy)benzyl)-2-oxoimidazolidin-1-yl)-4-methyl-N-(pyridin-3-ylmethyl)thiazole-5-carboxamide]	166 to 167 °C
Cc1nc(N2CCN(Cc3ccccc3)C2=O)sc1C(=O)NCc1cccc(Cl)c1 [Example 9.6, 2-(3-benzyl-2-oxoimidazolidin-1-yl)-N-(3-chlorobenzyl)-4-methylthiazole-5-carboxamide]	178 to 179 °C
Cc1nc(-n2ccn(Cc3ccc(F)cc3)c2=O)sc1C(=O)NCc1ccccc1 [Example 17, N-benzyl-2-(3-(4-fluorobenzyl)-2-oxo-2,3-dihydro-1H-imidazol-1-yl)-4-methylthiazole-5-carboxamide]	167 to 168 °C
Cc1cc(-n2cnn(Cc3ccc(F)cc3)c2=O)sc1C(=O)NCc1cccnc1 [Example 31, 5-(1-(4-fluorobenzyl)-5-oxo-1H-1,2,4-triazol-4(5H)-yl)-3-methyl-N-(pyridin-3-ylmethyl)thiophene-2-carboxamide]	180 to 182 °C
Cc1nc(N2CCN(Cc3ccc(OC(F)(F)F)cc3)C2=O)sc1C(=O)NCCc1cccnc1 [Example 9.32, 4-methyl-2-(2-oxo-3-(4-(trifluoromethoxy)benzyl)imidazolidin-1-yl)-N-(2-(pyridin-3-yl)ethyl)thiazole-5-carboxamide]	172 to 173 °C
Cc1nc(-n2cnn(Cc3ccc(C(F)(F)F)cc3)c2=O)sc1C(=O)NCc1cccnc1 [Example 21, 4-methyl-2-(5-oxo-1-(4-(trifluoromethyl)benzyl)-1H-1,2,4-triazol-4(5H)-yl)-N-(pyridin-3-ylmethyl)thiazole-5-carboxamide]	156 to 158 °C
Cc1nc(N2CCN(Cc3ccc(C(F)(F)F)cc3)C2=O)sc1C(=O)NCc1cccnc1 [Example 9.12, 4-methyl-2-(2-oxo-3-(4-(trifluoromethyl)benzyl)imidazolidin-1-yl)-N-(pyridin-3-ylmethyl)thiazole-5-carboxamide]	107 to 108 °C
Cc1cc(N2CCN(Cc3ccc(C(=O)O)cc3)C2=O)sc1C(=O)NCc1cccnc1 [Example 56, 4-((3-(4-methyl-5-(pyridin-3-ylmethylcarbamoyl)thiophen-2-yl)-2-oxoimidazolidin-1-yl)methyl)benzoic acid]	120 °C (dec.)
Cc1nc(N2CCN(Cc3ccccc3)C2=O)sc1C(=O)O [Example 6.2, 2-(3-benzyl-2-oxoimidazolidin-1-yl)-4-methylthiazole-5-carboxylic acid]	248 to 249 °C
Cc1nc(N2CCN(Cc3ccc(C(F)F)o3)C2=O)sc1C(=O)NCc1cccnc1 [Example 9.45, 2-(3-((5-(difluoromethyl)furan-2-yl)methyl)-2-oxoimidazolidin-1-yl)-4-methyl-N-(pyridin-3-ylmethyl)thiazole-5-carboxamide]	142 to 143 °C
Cc1nc(N2C(=O)N(Cc3ccc(F)cc3)CC2O)sc1C(=O)NCc1ccccc1 (centres unmarked) [Example 16, N-benzyl-2-(3-(4-fluorobenzyl)-5-hydroxy-2-oxoimidazolidin-1-yl)-4-methylthiazole-5-carboxamide]	133 to 134 °C
Cc1nc(N2CCN(Cc3ccccc3)C2=O)sc1C(=O)NCc1cccnc1 [Example 9.7, 2-(3-benzyl-2-oxoimidazolidin-1-yl)-4-methyl-N-(pyridin-3-ylmethyl)thiazole-5-carboxamide]	153 to 154 °C
Cc1nc(N2CCN(Cc3ccc(C(F)(F)F)cc3)C2=O)sc1C(=O)NCc1ccccc1 [Example 9.13, N-benzyl-4-methyl-2-(2-oxo-3-(4-(trifluoromethyl)benzyl)imidazolidin-1-yl)thiazole-5-carboxamide]	127 to 128 °C
Cc1nc(N2CCN(Cc3cccc(C(F)(F)F)c3)C2=O)sc1C(=O)NCc1cccnc1 [Example 9.43, 4-methyl-2-(2-oxo-3-(3-(trifluoromethyl)benzyl)imidazolidin-1-yl)-N-(pyridin-3-ylmethyl)thiazole-5-carboxamide]	175 to 176 °C
CCCN1CCN(c2nc(C)c(C(=O)NCc3cccnc3)s2)C1=O [Example 9.40, 4-methyl-2-(2-oxo-3-propylimidazolidin-1-yl)-N-(pyridin-3-ylmethyl)thiazole-5-carboxamide]	109 to 111 °C
Cc1nc(N2CCN(CCC3CC3)C2=O)sc1C(=O)NCc1ccccc1 [Example 9.17, N-benzyl-2-(3-(2-cyclopropylethyl)-2-oxoimidazolidin-1-yl)-4-methylthiazole-5-carboxamide]	137 to 138 °C
Cc1nc(N2CCN(Cc3ccc(F)cc3)C2=O)sc1C(=O)NCc1ccc(C(F)F)o1 [Example 9.44, N-((5-(difluoromethyl)furan-2-yl)methyl)-2-(3-(4-fluorobenzyl)-2-oxoimidazolidin-1-yl)-4-methylthiazole-5-carboxamide]	173 to 174 °C
Cc1nc(N2CCN(c3ccccc3)C2=O)sc1C(=O)NCc1ccccc1 [Example 7, N-benzyl-4-methyl-2-(2-oxo-3-phenylimidazolidin-1-yl)thiazole-5-carboxamide]	234 to 236 °C

Other lines, results leading:

melting point	SMILES
110 to 112 °C	Cc1nc(N2CCN(Cc3ccc4nonc4c3)C2=O)sc1C(=O)NCc1cccnc1 [Example 32.6, 2-(3-(benzo[c][1,2,5]oxadiazol-5-ylmethyl)-2-oxoimidazolidin-1-yl)-4-methyl-N-(pyridin-3-ylmethyl)thiazole-5-carboxamide]
135 to 137 °C	Cc1nc(N2CCN(Cc3ccccc3)S2(=O)=O)sc1C(=O)NCc1ccccc1 [Example 27.1, N-benzyl-2-(5-benzyl-1,1-dioxido-1,2,5-thiadiazolidin-2-yl)-4-methyl-1,3-thiazole-5-carboxamide]
188 °C (dec.)	Cc1cc(N2CCN(Cc3ccc(C(N)=O)cc3)C2=O)sc1C(=O)NCc1cccnc1 [Example 55.2, 5-(3-(4-carbamoylbenzyl)-2-oxoimidazolidin-1-yl)-3-methyl-N-(pyridin-3-ylmethyl)thiophene-2-carboxamide]
205 to 206 °C	Cc1nc(-n2cnn(Cc3ccc(F)cc3)c2=O)sc1C(=O)NCc1cnn(C)c1 [Example 21.10, 2-(1-(4-fluorobenzyl)-5-oxo-1H-1,2,4-triazol-4(5H)-yl)-4-methyl-N-((1-methyl-1H-pyrazol-4-yl)methyl)thiazole-5-carboxamide]
173 to 175 °C	Cc1nc(N2CCN(Cc3ccc(F)cc3)C2=O)sc1C(=O)NCc1cnn(C)c1 [Example 32.13, 2-(3-(4-fluorobenzyl)-2-oxoimidazolidin-1-yl)-4-methyl-N-((1-methyl-1H-pyrazol-4-yl)methyl)thiazole-5-carboxamide]
178 to 179 °C	Cc1nc(-n2cnn(Cc3ccc(F)cc3)c2=O)sc1C(=O)NCc1cccnc1 [Example 21.3, 2-(1-(4-fluorobenzyl)-5-oxo-1H-1,2,4-triazol-4(5H)-yl)-4-methyl-N-(pyridin-3-ylmethyl)thiazole-5-carboxamide]
148 to 150 °C	Cc1nc(CNC(=O)c2sc(-n3cnn(Cc4ccc(F)cc4)c3=O)cc2C)cs1 [Example 31.8, 5-(1-(4-fluorobenzyl)-5-oxo-1H-1,2,4-triazol-4(5H)-yl)-3-methyl-N-((2-methylthiazol-4-yl)methyl)thiophene-2-carboxamide]
265 to 267 °C	Cc1cc(N2CCN(Cc3ccc(F)cc3)C2=O)sc1C(=O)NCc1nc2ccccc2[nH]1 [Example 55.4, N-((1H-benzo[d]imidazol-2-yl)methyl)-5-(3-(4-fluorobenzyl)-2-oxoimidazolidin-1-yl)-3-methylthiophene-2-carboxamide]
205 to 207 °C	Cc1nc(N2CCN(Cc3ccc(F)cc3)C2=O)sc1C(=O)NCc1ncccn1 [Example 32.16, 2-(3-(4-fluorobenzyl)-2-oxoimidazolidin-1-yl)-4-methyl-N-(pyrimidin-2-ylmethyl)thiazole-5-carboxamide]
163 to 165 °C	Cc1cc(-n2cnn(Cc3ccc(F)cc3)c2=O)sc1C(=O)NCc1ncco1 [Example 31.6, 5-(1-(4-fluorobenzyl)-5-oxo-1H-1,2,4-triazol-4(5H)-yl)-3-methyl-N-(oxazol-2-ylmethyl)thiophene-2-carboxamide]
185 to 187 °C	Cc1nc(N2CCN(Cc3ccc(F)cc3)C2=O)sc1C(=O)NCc1cnccn1 [Example 32.17, 2-(3-(4-fluorobenzyl)-2-oxoimidazolidin-1-yl)-4-methyl-N-(pyrazin-2-ylmethyl)thiazole-5-carboxamide]
155 to 156 °C	Cc1nc(N2CCN(Cc3cccc(F)c3)C2=O)sc1C(=O)NCc1ccccc1 [Example 23.3, N-benzyl-2-(3-(3-fluorobenzyl)-2-oxoimidazolidin-1-yl)-4-methylthiazole-5-carboxamide]
64 to 66 °C	Cc1nc(N2C(=O)N(Cc3ccc(F)cc3)CC2O)sc1C(=O)NCc1cccnc1 (centres unmarked) [Example 16.2, 2-(3-(4-fluorobenzyl)-5-hydroxy-2-oxoimidazolidin-1-yl)-4-methyl-N-(pyridin-3-ylmethyl)thiazole-5-carboxamide]
175 to 176 °C	Cc1nc(N2CCN(Cc3ccc(F)cc3)C2=O)sc1C(=O)NCc1ccncn1 [Example 32.14, 2-(3-(4-fluorobenzyl)-2-oxoimidazolidin-1-yl)-4-methyl-N-(pyrimidin-4-ylmethyl)thiazole-5-carboxamide]
110 to 113 °C	Cc1nc(N2CCN(Cc3cccnc3)C2=O)sc1C(=O)NCc1ccccc1 [Example 32.9, N-benzyl-4-methyl-2-(2-oxo-3-(pyridin-3-ylmethyl)imidazolidin-1-yl)thiazole-5-carboxamide]
